Data on 14 compounds can be found in article PMC10377586 (Biomolecules, 2023).

A short description of one data set: DPPH antioxidant assay. The class given is physicochemical. To be noted: compound at 50 µM. From the text: The 2,2-diphenyl-1-picrylhydrazyl (DPPH) assay was used to determine the antioxidant properties of selected compounds using ascorbic acid, trolox, and quercetin as references. […] From a structural point of view, 21 and 22 share a common pyrimido[2,1-f]purinedione core with propyl or butyl substituents at the N1- and N3-position. Compounds 11i and 11l, containing hexyl or phenoxyethyl as N7-substituents, were the only structures in the groups of bicyclic xanthine derivatives that lacked antioxidant activity in the DPPH assay.
Antioxidant properties of considered structures were evaluated in DPPH test. The assay utilizes a stable free radical 2,2-diphenyl-1-picrylhydrazyl (DPPH). DPPH has a deep violet color in solution and strong absorption band at 520 nm. The antioxidant activity of the tested compounds was defined by their ability to induce the formation of the reduced form of DPPH. Upon reduction, DPPH color turned pale yellow, which manifested by decreased sample absorption at 520 nm and was measured in conducted experiments using EnSpire microplate reader (PerkinElmer). Antioxidant activity of xanthine derivatives and reference compounds was tested in triplicate at 50 µM concentration and normalized to the activity of reference radical scavenger—quercetin.
Figure 2 Antioxidant properties of xanthine derivatives evaluated in the DPPH test. All compounds were tested at 50 µM concentration. Results were normalized to the antioxidant activity measured for quercetin. ASC, ascorbic acid; TLX, trolox; QCT, quercetin.

A further data set addresses human D2L receptor (Homo sapiens, UniProt P14416). Put plainly: Radioligand binding [3H]-raclopride, HEK293 membranes. To be noted: HEK293 cells, human D2; read-out: hD2 [3H]-Raclopride Ki ± SEM. The method, then: Rat brain cortical membranes were used as source of native rat D1 receptor protein, and human D2 receptor was recombinantly expressed in HEK293 cells.
HEK293 cells with stable expression of human D2L receptor were maintained at 37 °C in a humidified atmosphere with 5% CO2 and grown in Dulbecco’s Modifier Eagle Medium containing 10% dialyzed fetal bovine serum and 500 µg/mL G418 sulfate. For membrane preparation, cells were subcultured in 150 cm^2 flasks, grown to 90% confluence, washed twice with prewarmed to 37 °C phosphate buffered saline (PBS), and pelleted by centrifugation (200× g) in PBS containing 0.1 mM EDTA and 1 mM dithiothreitol. Prior to membrane preparation, pellets were stored at −80 °C.
Cell pellets were thawed and homogenized in 10 volumes of assay buffer using an Ultra Turrax tissue homogenizer and centrifuged twice at 35,000× g for 15 min at 4 °C. The incubation buffer consisted of 50 mM Tris-HCl, 1 mM EDTA, 4 mM MgCl2, 120 mM NaCl, 5 mM KCl, 1.5 mM CaCl2, and 0.1% ascorbate. Assay was incubated in a total volume of 200 µL in 96-well microtiter plate for 1 h at 37 °C. The process of equilibration was terminated by rapid filtration through Unifilter plate with a 96-well cell harvester and radioactivity retained on the filter was quantified on a Microbeta plate reader (PerkinElmer). For competition studies, the assay samples contained radioligand 2.5 nM [^3H]-raclopride (PerkinElmer). Non-specific binding was defined with 10 µM of haloperidol. Each compound was tested in triplicate at 7 concentrations (10^−10–10^−4 M). The inhibition constants (Ki) were calculated from the Cheng–Prusoff equation [66]. Results were expressed as means of at least two separate experiments.

The target of another data set is T1, rat A2A (rA2A) ARs (Rattus norvegicus, UniProt P30543).
T1 construct: rat brain striatal membrane preparations for A2A AR assays; tissue Pel Freez; host or cells: rat brain striatum membranes
T1 sequence (P30543 whole entry): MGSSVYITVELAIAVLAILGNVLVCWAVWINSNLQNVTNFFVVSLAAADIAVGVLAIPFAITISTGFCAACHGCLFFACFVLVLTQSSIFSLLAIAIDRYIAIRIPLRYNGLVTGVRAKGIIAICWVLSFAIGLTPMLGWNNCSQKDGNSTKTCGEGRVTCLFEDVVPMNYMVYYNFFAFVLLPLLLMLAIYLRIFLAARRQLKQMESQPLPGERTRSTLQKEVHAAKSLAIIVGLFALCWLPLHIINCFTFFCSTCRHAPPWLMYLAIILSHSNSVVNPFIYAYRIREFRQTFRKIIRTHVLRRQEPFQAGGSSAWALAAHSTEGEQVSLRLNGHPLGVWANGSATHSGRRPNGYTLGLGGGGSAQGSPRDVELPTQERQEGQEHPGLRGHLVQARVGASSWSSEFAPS
Put plainly: Radioligand binding [3H]MSX-2, rat brain striatal membranes. To be noted: read-out: rA2A [3H]MSX-2 Ki ± SEM. The method, then: The final compounds were tested in radioligand binding assays to evaluate their affinity for all four ARs subtypes (see Table 2). Rat brain cortical membrane preparations were used as a source of rat A1 (rA1) ARs, and rat brain striatal membrane preparations served as a source of rat A2A (rA2A) ARs. For A2B- and A3AR assays, membrane preparations of Chinese hamster ovary (CHO) cells recombinantly expressing either human A2B (hA2B) or human A3 (hA3) ARs were employed.
Adenosine receptor radioligand binding assays were performed as previously described using rat brain cortical membrane preparations for A1 and rat brain striatal membrane preparations for A2A AR assays. Frozen rat brains (unstripped) were obtained from Pel Freez, Rogers, AR, USA. For assays at human AR subtypes, cell membranes of CHO cells recombinantly expressing the respective receptor were used. The following compounds were employed as radioligands: A1: [^3H]2-chloro-N^6-cyclopentyladenosine ([^3H]CCPA); A2A: [^3H]3-(3-hydroxypropyl)-7-methyl-8-(m-methoxystyryl)-1-propargylxanthine ([^3H]MSX-2); A2B: [^3H]8-(4-(4-(4-chlorophenyl)piperazine-1-sulfonyl)phenyl)-1-propylxanthine ([^3H]PSB-603); A3: [^3H]phenyl-8-ethyl-4-methyl-(8R)-4,5,7,8-tetrahydro-1H-imidazo[2,1-i]purine-5-one ([^3H]PSB-11). Initially, a single high concentration of compound was tested (1 µM). For potent compounds, full concentration–inhibition curves were determined using six to ten different concentrations of test compound spanning three orders of magnitude. At least three independent experiments were performed. Data were analyzed using GraphPad PRISM program version 4.0 or higher (Graph Pad, San Diego, CA, USA).

human D2L receptor, sequence (P14416 whole entry): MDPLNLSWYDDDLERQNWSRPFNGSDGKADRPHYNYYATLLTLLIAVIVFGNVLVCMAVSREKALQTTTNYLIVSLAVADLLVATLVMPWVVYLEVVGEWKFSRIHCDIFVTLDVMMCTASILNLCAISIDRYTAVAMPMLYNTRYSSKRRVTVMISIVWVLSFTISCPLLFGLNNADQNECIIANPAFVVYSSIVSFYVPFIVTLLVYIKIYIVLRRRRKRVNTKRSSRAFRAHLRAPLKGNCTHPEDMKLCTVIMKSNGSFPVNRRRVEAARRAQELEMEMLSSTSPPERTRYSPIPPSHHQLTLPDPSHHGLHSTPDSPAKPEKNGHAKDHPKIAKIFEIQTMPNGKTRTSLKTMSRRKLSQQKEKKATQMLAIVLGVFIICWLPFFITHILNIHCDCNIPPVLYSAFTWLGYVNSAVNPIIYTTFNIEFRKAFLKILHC

A word on the Ki: it is the equilibrium dissociation constant of an inhibitor or competing ligand from its target. The term melting point denotes the temperature of the solid-liquid transition. Turning to `Cn1c(=O)c2c(nc(NCCc3ccc(O)c(O)c3)n2C)n(C)c1=O` [Compound 11a, 8-((3,4-Dihydroxyphenethyl)amino)-1,3,7-trimethyl-3,7-dihydro-1H-purine-2,6-dione], the melting point is 204 to 206 °C. Moreover, the “Antioxidative Activity [% of Quercetin Response at 50 µM ± SD]” value in the data set “DPPH antioxidant assay” was 79 ± 1 % of Quercetin Response. The Ki on human D2L receptor amounted to 25.2 ± 5.97 µM. For the same compound, at rat A2A (rA2A) ARs, the inhibition constant (Ki) was found to be 0.37 ± 0.063 µM.

For `CCn1c(NCCc2ccc(O)c(O)c2)nc2c1c(=O)n(C)c(=O)n2C` [Compound 11b, 8-((3,4-Dihydroxyphenethyl)amino)-7-ethyl-1,3-dimethyl-3,7-dihydro-1H-purine-2,6-dione], the melting point lay in the range of 225 to 226 °C. Further, in the data set “DPPH antioxidant assay”, the “Antioxidative Activity [% of Quercetin Response at 50 µM ± SD]” value was 75 ± 1 % of Quercetin Response. Further, on human D2L receptor, the Ki is 16.2 ± 1.23 µM. At rat A2A (rA2A) ARs, the Ki was 0.672 ± 0.083 µM.

With `CC(C)n1c(NCCc2ccc(O)c(O)c2)nc2c1c(=O)n(C)c(=O)n2C` [Compound 11d, 8-((3,4-Dihydroxyphenethyl)amino)-7-isopropyl-1,3-dimethyl-3,7-dihydro-1H-purine-2,6-dione], the melting point was 180 to 182 °C. The “Antioxidative Activity [% of Quercetin Response at 50 µM ± SD]” value in the data set “DPPH antioxidant assay” is listed as 87 ± 1 % of Quercetin Response. Further, the Ki on human D2L receptor amounted to 17.7 ± 3.99 µM. The Ki at rat A2A (rA2A) ARs stood at 1.15 ± 0.14 µM.

Regarding `CCCCn1c(NCCc2ccc(O)c(O)c2)nc2c1c(=O)n(C)c(=O)n2C` [Compound 11e, 7-Butyl-8-((3,4-dihydroxyphenethyl)amino)-1,3-dimethyl-3,7-dihydro-1H-purine-2,6-dione], in “DPPH antioxidant assay”, the “Antioxidative Activity [% of Quercetin Response at 50 µM ± SD]” value was 75 ± 1 % of Quercetin Response. Besides, the Ki was determined as 12.7 ± 1.86 µM at human D2L receptor and 1.7 ± 0.26 µM on rat A2A (rA2A) ARs.

As for `CC(C)Cn1c(NCCc2ccc(O)c(O)c2)nc2c1c(=O)n(C)c(=O)n2C` [Compound 11f, 8-((3,4-Dihydroxyphenethyl)amino)-7-isobutyl-1,3-dimethyl-3,7-dihydro-1H-purine-2,6-dione], in “DPPH antioxidant assay”, the “Antioxidative Activity [% of Quercetin Response at 50 µM ± SD]” value was 57 ± 1 % of Quercetin Response. Also, the Ki on human D2L receptor came out at 27.6 ± 4 µM; on rat A2A (rA2A) ARs, 6.86 ± 0.77 µM.

As to `CCC(C)n1c(NCCc2ccc(O)c(O)c2)nc2c1c(=O)n(C)c(=O)n2C` (stereo not shown) [Compound 11g, 7-(Sec-butyl)-8-((3,4-dihydroxyphenethyl)amino)-1,3-dimethyl-3,7-dihydro-1H-purine-2,6-dione], in the data set “DPPH antioxidant assay”, the “Antioxidative Activity [% of Quercetin Response at 50 µM ± SD]” value is 71 ± 1 % of Quercetin Response. The Ki came to 39.2 ± 8.43 µM at human D2L receptor and 8.98 ± 0.15 µM on rat A2A (rA2A) ARs.

Take `CCCCCn1c(NCCc2ccc(O)c(O)c2)nc2c1c(=O)n(C)c(=O)n2C` [Compound 11h, 8-((3,4-Dihydroxyphenethyl)amino)-1,3-dimethyl-7-pentyl-3,7-dihydro-1H-purine-2,6-dione]: the “Antioxidative Activity [% of Quercetin Response at 50 µM ± SD]” value in the data set “DPPH antioxidant assay” is given as 79 ± 1 % of Quercetin Response. The figures for the Ki on human D2L receptor and at rat A2A (rA2A) ARs were 8.26 ± 0.48 µM and 2.22 ± 0.26 µM, respectively.

Turning to `CCCCCCn1c(NCCc2ccc(O)c(O)c2)nc2c1c(=O)n(C)c(=O)n2C` [Compound 11i, 8-((3,4-Dihydroxyphenethyl)amino)-7-hexyl-1,3-dimethyl-3,7-dihydro-1H-purine-2,6-dione], the melting point was in the range of 216 to 218 °C. Also, the “Antioxidative Activity [% of Quercetin Response at 50 µM ± SD]” value in the data set “DPPH antioxidant assay” was 26 ± 1 % of Quercetin Response. In addition, at human D2L receptor, the inhibition constant Ki worked out at 6.68 ± 0.95 µM. The Ki at rat A2A (rA2A) ARs is over 10 µM.

As to `Cn1c(=O)c2c(nc(NCCc3ccc(O)c(O)c3)n2Cc2ccccc2)n(C)c1=O` [Compound 11j, 7-Benzyl-8-((3,4-dihydroxyphenethyl)amino)-1,3-dimethyl-3,7-dihydro-1H-purine-2,6-dione], the “Antioxidative Activity [% of Quercetin Response at 50 µM ± SD]” value in the data set “DPPH antioxidant assay” is on record as 82 ± 1 % of Quercetin Response. Moreover, the Ki came out at 9.1 ± 1.65 µM on human D2L receptor and 3.6 ± 0.29 µM on rat A2A (rA2A) ARs.

For `Cn1c(=O)c2c(nc(NCCc3ccc(O)c(O)c3)n2CCc2ccccc2)n(C)c1=O` [Compound 11k, 8-((3,4-Dihydroxyphenethyl)amino)-1,3-dimethyl-7-phenethyl-3,7-dihydro-1H-purine-2,6-dione], the “Antioxidative Activity [% of Quercetin Response at 50 µM ± SD]” value in the data set “DPPH antioxidant assay” was 73 ± 3 % of Quercetin Response. Also, the Ki is 9.95 ± 1.95 µM on human D2L receptor and at least 10 µM on rat A2A (rA2A) ARs.

In turn, `Cn1c(=O)c2c(nc(NCCc3ccc(O)c(O)c3)n2CCOc2ccccc2)n(C)c1=O` [Compound 11l, 8-((3,4-Dihydroxyphenethyl)amino)-1,3-dimethyl-7-(2-phenoxyethyl)-3,7-dihydro-1H-purine-2,6-dione] displayed a melting point of 218 to 220 °C. Moreover, the “Antioxidative Activity [% of Quercetin Response at 50 µM ± SD]” value in “DPPH antioxidant assay” is recorded as 26 ± 3 % of Quercetin Response. The Ki on human D2L receptor came to 8.87 ± 0.94 µM. For the same compound, the Ki at rat A2A (rA2A) ARs turned out to be 1.38 ± 0.12 µM.

As for `CCCCn1c(=O)c2c(nc(NCCc3ccc(O)c(O)c3)n2CCC)n(CCCC)c1=O` [Compound 13, 1,3-Dibutyl-8-((3,4-dihydroxyphenethyl)amino)-7-propyl-3,7-dihydro-1H-purine-2,6-dione], the “Antioxidative Activity [% of Quercetin Response at 50 µM ± SD]” value in the data set “DPPH antioxidant assay” is on record as 61 ± 1 % of Quercetin Response. In addition, the Ki amounted to 4.39 ± 0.43 µM at human D2L receptor and 1.32 ± 0.25 µM at rat A2A (rA2A) ARs.

For the compound `Cn1c(=O)c2c(nc3n2CCCN3CCc2ccc(O)c(O)c2)n(C)c1=O` [Compound 20a, 9-(3,4-Dihydroxyphenethyl)-1,3-dimethyl-6,7,8,9-tetrahydropyrimido[2,1-f]purine-2,4(1H,3H)-dione], the melting point was 213 to 215 °C. The “Antioxidative Activity [% of Quercetin Response at 50 µM ± SD]” value in “DPPH antioxidant assay” is recorded as 68 ± 2 % of Quercetin Response. The Ki on human D2L receptor was determined as 6.68 ± 0.87 µM. Besides, the inhibition constant (Ki) on rat A2A (rA2A) ARs was 0.507 ± 0.109 µM.

Compound `Cn1c(=O)c2c(nc3n2CCCCN3CCc2ccc(O)c(O)c2)n(C)c1=O` [Compound 20b, 10-(3,4-Dihydroxyphenethyl)-1,3-dimethyl-7,8,9,10-tetrahydro-1H-[1, 3]diazepino[2,1-f]purine-2,4(3H,6H)-dione] registered a melting point of 232 to 235 °C. Also, in the data set “DPPH antioxidant assay”, the “Antioxidative Activity [% of Quercetin Response at 50 µM ± SD]” value was 79 ± 1 % of Quercetin Response. The Ki on human D2L receptor was 10.7 ± 1.4 µM. The Ki at rat A2A (rA2A) ARs turned out to be 0.234 ± 0.055 µM.
